Reference: article PMC11768344 (Pharmaceutics, 2024)
Converted amounts (≈) assume the structure as drawn. Where two headings read alike, the source gives them in different places.

Experiments:
[1] = in vitro drug release, inverted-cup method; format: physicochemical; conditions: for solubility: PBS pH 7.4 with 0.25% SDS (release medium), pH 7.4, read-out: solubility in the release media
Method: In a preliminary study, the release of ROP-ST from its oil solution was investigated at 25 °C using the dialysis method. Briefly, 0.5 mL of ROP-ST oil solution was placed into a dialysis bag (MWCO: 14 kDa) and immersed into 150 mL of PBS solution (pH 7.4) with 0.5% sodium dodecyl sulfate (SDS). The dialysis media were stirred with a magnetic bar at 100 r/min. An aliquot (1 mL) was withdrawn at predetermined time intervals, and ROP-ST in the samples was quantified using HPLC−UV. […] Therefore, an “inverted-cup” method was utilized in this study to investigate the release profile of ROP-ST (Figure 3a). Briefly, a beaker containing 150 mL of PBS solution (pH 7.4, with 0.25% SDS) as the release medium was placed on a magnetic stirrer and stirred continuously at 100 r/min at room temperature (25 °C). A transparent glass cylinder (inner diameter: 1 cm) with two open endings was placed vertically in the beaker, with one ending immersed in the PBS solution and the other ending exposed to air. Then, 1 mL of ROP-ST oil solution was added to a glass cylinder, and the ending exposed in air was sealed with a plastic thin-film. In the meantime, the beaker was also sealed with a plastic thin-film. At predetermined time intervals, an aliquot (1 mL) of the release medium were withdrawn by a syringe, and 1 mL of fresh release medium was immediately replenished. The concentration of ROP-ST in the samples was determined by HPLC−UV, and the cumulative release of ROP-ST was calculated accordingly. The experiment was performed in triplicates.
For comparison, the release of an ROP-free base from its soybean oil solution and the release of aripiprazole lauroxil (APL) from its soybean oil solution were also investigated. […] To prepare the APL oil solution, 90.4 mg of APL was dissolved and mixed in 5 mL of soybean oil. The concentration of APL was 18.08 mg/mL (27.37 mM). […] Moreover, the marketed APL injectables are suspensions; therefore, the release of APL from its suspension was also studied. This was carried out by placing 5.89 mg of APL into 150 mL of PBS7.4 solution directly, which contained 0.25% SDS. The solution was also stirred and sampled in the same way as described above. APL was analyzed according to the previously reported method.

[2] = saturated solubility (shake, 37 °C, 72 h, HPLC-UV); format: physicochemical; conditions: for SPBS 7.4, the solubility in PBS 7.4 solution: PBS pH 7.4, 37 °C
Method: After centrifugation at 12,000 r/min for 10 min (TGL-16C centrifuge; Anting Scientific Instrument Company, Shanghai, China), the supernatant was withdrawn, and the solution was filtered through a syringe filter (pore size: 0.45 μm). […] The experiments were performed in triplicates.
Quantification of ROP-ST was performed using an HPLC−UV system consisting of an LC-10AT VP pump, an SPD-10A VP UV–vis detector, a CTO-10A column oven, a SIL-10AF autosampler, and an SCL-10A VP controller (Shimadzu Corporation; Kyoto, Japan). Data were collected and processed using LC-solution software. Isocratic elution was performed on a Diamonsil C18 column (150 mm × 4.6 mm I.D., 5 µm), and an EasyGuard C18 guard column (10 × 4.0 mm I.D., 5 µm) was mounted upstream from the analytical column (Dikma Technologies; Beijing, China). The column temperature was kept at 35 °C, and the UV absorbance wavelength was set at 215 nm. The mobile phase, comprising 88% (v/v) acetonitrile and 12% (v/v) water with 0.1% (v/v) trifluoroacetic acid, was used after filtering through a filter membrane (pore size: 0.45 μm) and degassing within an ultrasonic water bath (KQ-500VDE Ultrasonic Cleaner; Kunshan, China) for 40 min. The flow rate was maintained at 1.0 mL/min, and the injection volume was 20 µL. The calibration curve was linear in the range of 1–200 μM, and the correlation coefficient was >0.9998. […] The lower limit of quantification (LOQ) of ROP-ST was 1 μM (equal to 0.57 μg/mL). The validation of the HPLC method can be found in Supplemental Materials.
Briefly, the column temperature was kept at 35 °C, and the UV absorbance wavelength was set at 240 nm. The mobile phase comprised 50% (v/v) acetonitrile and 50% (v/v) phosphate buffer. The phosphate buffer was prepared by mixing 1.3 mL of sodium dihydrogen phosphate (1 mol/L) with 32.5 mL of disodium hydrogen phosphate (0.5 mol/L) and diluting to 1 L by water, and then the pH value was adjusted to 8.0. The flow rate was maintained at 1.0 mL/min, and the injection volume was 20 µL. The validation of the quantification method can be found in the Supplementary Materials.

[3] = n-octanol/water partition coefficient (experimental Log P); format: physicochemical; conditions: 37 °C, read-out: Log Pexp., experimental Log P
Method: Approximately 1 mg of ROP-ST and ROP-free base were dissolved in a bi-phase mixture of water-saturated n-octanol solution and n-octanol-saturated water (5 mL:5 mL), respectively. After equilibration in a water bath shaker (37 °C) for 24 h, the two phases were sampled separately and diluted with acetonitrile. […] The Log P value of each compound was calculated accordingly. The experiments were performed in triplicates.

[4] = in vitro drug release, dialysis method (preliminary); format: physicochemical; conditions: oil solution in dialysis bag MWCO 14 kDa, PBS pH 7.4 with 0.5% SDS, 25 °C, until 96 h
Method: In a preliminary study, the release of ROP-ST from its oil solution was investigated at 25 °C using the dialysis method. Briefly, 0.5 mL of ROP-ST oil solution was placed into a dialysis bag (MWCO: 14 kDa) and immersed into 150 mL of PBS solution (pH 7.4) with 0.5% sodium dodecyl sulfate (SDS). The dialysis media were stirred with a magnetic bar at 100 r/min. An aliquot (1 mL) was withdrawn at predetermined time intervals, and ROP-ST in the samples was quantified using HPLC−UV. […] Therefore, an “inverted-cup” method was utilized in this study to investigate the release profile of ROP-ST (Figure 3a). Briefly, a beaker containing 150 mL of PBS solution (pH 7.4, with 0.25% SDS) as the release medium was placed on a magnetic stirrer and stirred continuously at 100 r/min at room temperature (25 °C). A transparent glass cylinder (inner diameter: 1 cm) with two open endings was placed vertically in the beaker, with one ending immersed in the PBS solution and the other ending exposed to air. Then, 1 mL of ROP-ST oil solution was added to a glass cylinder, and the ending exposed in air was sealed with a plastic thin-film. In the meantime, the beaker was also sealed with a plastic thin-film. […] The concentration of ROP-ST in the samples was determined by HPLC−UV, and the cumulative release of ROP-ST was calculated accordingly. […]

[5] = plasma stability study of ROP-ST; format: in vitro ADME, rat; conditions: 25 °C
Method: Healthy male Sprague–Dawley rats (SD rats, 200 ± 20 g) were provided by the Animal Experiment Center of Nantong University (protocol code of the ethical proof: S20240617-005). Blood samples were collected from the orbital cavity and centrifuged at 10,000 r/min for 10 min (TGL-16C centrifuge; Anting Scientific Instrument Company, Shanghai, China) to obtain blank plasma. The blank plasma was mixed with saline to obtain plasma solutions of 10%, 20%, and 40% (v/v) plasma, respectively. A half milliliter of saline, or 10%, 20%, and 40% plasma solution, was added to an EP tube, respectively, followed by adding 50 μL of methanolic solution of ROP-ST (concentration: 1100 μM) to each tube. The tubes were sealed and placed in a water bath shaker (37 °C). Three tubes were taken at each predetermined time point (0, 10, 20, 30, 40, 50, 60, 70, 80, and 90 min, respectively), rapidly frozen in liquid nitrogen to terminate the enzymatic reaction, and then stored at −80 °C. The samples were lyophilized to obtain dry residues. Before analysis, the residues were dissolved in methanol and subjected to ultrasonic treatment for 30 s. The resulting solution was filtered through a filter membrane (pore size: 0.45 μm), and the remaining levels of ROP-ST in subsequent filtrates were quantified by HPLC−UV. The hydrolysis rate constants (kobs) of the prodrug were calculated by plotting the natural logarithm of the remaining percentage against time. The corresponding half-life (t1/2) was then calculated (t1/2 = ln2/kobs). The experiment was conducted in triplicates.
(§1) The enzymatic stability of ROP-ST was examined by placing the methanolic solution of the prodrug into rat plasma solution and porcine liver esterase solution. […] The hydrolysis rate constants (kobs) of the prodrug were calculated by plotting the natural logarithm of the remaining percentage against time. The corresponding half-life (t1/2) was then calculated (t1/2 = ln2/kobs). Data at 25 °C were fitted approximately to a first-order kinetic equation for the prodrug loss (Figure 4). It should be noted that the actual hydrolytic kinetics of such lipophilic prodrugs by enzymes could be complicated in vitro and in vivo, which may not fully comply with the first-order kinetics. […] The rate of enzymatic cleavage increases as the concentration of rat plasma or the concentration of porcine liver esterase increases. In fact, the injection site of ROP-ST is muscle, which contains less esterase than the plasma. Therefore, it is logical to hypothesize that the bioconversion rate of ROP-ST in the muscle should be slower, which enables sustained release and long-acting efficacy.

porcine liver esterase = assay: liver esterase stability study of ROP-ST; format: in vitro ADME; conditions: for half-life at 100 µM: pig, porcine liver esterase solution
Method: (§2) Porcine liver esterase solutions were prepared by dissolving 4, 8, and 16 mg of porcine liver esterase powder (15 U/mg) into 12 mL of phosphate buffer (pH 8.0) to obtain porcine liver esterase solutions with the concentrations of 5, 10 and 20 U/mL, respectively. A half milliliter of blank buffer solution (pH 8 without enzyme) or porcine liver esterase solutions with the concentration of 5, 10, or 20 U/mL, respectively, was added to an EP tube, followed by adding 50 μL of methanolic solution of ROP-ST (concentration: 1100 μM) to each tube. The tubes were sealed and placed in a water bath shaker (25 °C) according to product instructions and a previous report. Three tubes were taken at each predetermined time point (0, 30, 45, 60, 75, 90, 105, and 120 min, respectively), rapidly frozen in liquid nitrogen to terminate the enzymatic reaction, and then stored at −80 °C. The subsequent treatments of the samples complied with the procedures described in “Section 2.5.1.”. The experiment was conducted in triplicates.
as §1

[6] = liver esterase stability study of ROP-ST; format: in vitro ADME, porcine; conditions: 0 U/mL, phosphate buffer (pH 8.0) without liver esterase, 25 °C
Method: as §2, §1

[7] = no reference given; cited from earlier work
[8] = 0% rat plasma (saline solution without rat plasma)
[9] = 5 U/mL porcine liver esterase, pH 8.0, 25 °C
[10] = 10 U/mL porcine liver esterase, pH 8.0, 25 °C
[11] = 20 U/mL porcine liver esterase, pH 8.0, 25 °C

Which solubility [1] does the source give for CCCCCCCCCCCC(=O)OCN1C(=O)CCc2ccc(OCCCCN3CCN(c4cccc(Cl)c4Cl)CC3)cc21 [APL, aripiprazole lauroxil, reference compound] here?
Its solubility is ~209 µM (≈ 138 µg/mL).

With CCCN1CCCC[C@H]1C(=O)Nc1c(C)cccc1C [ROP, Ropivacaine] as the compound, how does the solubility at 72 h ([2]; PBS buffer pH 7.4, pH 7.4, PBS pH 7.4, 37 °C, read-out: SPBS 7.4, the solubility in PBS 7.4 solution) read?
Its solubility at 72 h is ~1 mM.

What about the solubility at 72 h ([2]; PBS buffer pH 7.4, pH 7.4, PBS pH 7.4, 37 °C, read-out: solubility in PBS 7.4 solution) of the same compound?
Its solubility at 72 h is ~270 µg/mL.

And the “SPBS 7.4, the solubility in PBS 7.4 solution” value [2]?
The value was 1.04 ± 0.04 mM.

And the solubility at 72 h ([2]; soybean oil, 37 °C, read-out: Soil, the solubility in soybean oil)?
Its solubility at 72 h is 37.1 ± 0.53 mM.

What about the logP at 24 h [3] of the same compound?
Its logP at 24 h is 1.88 ± 0.17.

And the “released in the first 12 h” value ([1]; from soybean oil solution 27.37 mM, PBS pH 7.4 with 0.25% SDS, 25 °C)?
Its value is ~80%.

Which results are given for CCCCCCCCCCCCCCCCCC(=O)OCN(C(=O)C1CCCCN1CCC)c1c(C)cccc1C (stereo not drawn) [ROP-ST, ropivacaine stearoxil]?
SPBS 7.4, the solubility in PBS 7.4 solution [2]: <LOQ; Soil, the solubility in soybean oil ([2]; soybean oil, 37 °C): Miscible; ROP-ST detected in dialysis medium [4]: no ROP-ST was detected; half-life at 100 µM [5, 8]: 4940 ± 1570 min; k × 10^3, first-order hydrolysis rate constant [5, 8]: 9.1 ± 3.2 h^−1; k × 10^3, first-order hydrolysis rate constant ([5]; 10% (v/v) rat plasma): 436.6 ± 17.2 h^−1; k × 10^3, first-order hydrolysis rate constant ([5]; 20% (v/v) rat plasma): 665.0 ± 35.2 h^−1; k × 10^3, first-order hydrolysis rate constant ([5]; 40% (v/v) rat plasma): 666.9 ± 30.7 h^−1; half-life at 100 µM ([5]; male, Sprague-Dawley, 10% (v/v) rat plasma in saline, 10% (v/v) rat plasma): 95.4 ± 3.6 min; half-life at 100 µM ([5]; male, Sprague-Dawley, 20% (v/v) rat plasma in saline, 20% (v/v) rat plasma): 62.4 ± 3.6 min; half-life at 100 µM ([5]; male, Sprague-Dawley, 40% (v/v) rat plasma in saline, 40% (v/v) rat plasma): 62.4 ± 3 min; k × 10^3, first-order hydrolysis rate constant (porcine liver esterase; 0 U/mL, phosphate buffer (pH 8.0) without liver esterase, 25 °C): 8.0 ±1.3 h^−1; k × 10^3, first-order hydrolysis rate constant (porcine liver esterase; [9]): 107.9 ± 29.0 h^−1; k × 10^3, first-order hydrolysis rate constant (porcine liver esterase; [10]): 159.6 ±1.3 h^−1; k × 10^3, first-order hydrolysis rate constant (porcine liver esterase; [11]): 226.1 ± 24.7 h^−1; half-life at 100 µM (porcine liver esterase; [9]): 407 ± 119 min; half-life at 100 µM (porcine liver esterase; [10]): 260.4 ± 1.8 min; half-life at 100 µM (porcine liver esterase; [11]): 185 ± 21.6 min; half-life at 100 µM [6]: 3.68 ± 0.623 days; solubility [1]: ~1500 µM (≈ 856 µg/mL); total cumulative release ([1]; from soybean oil solution 27.37 mM, PBS pH 7.4 with 0.25% SDS, 25 °C, 72 h): 69.55%; duration of sustained release ([1]; from soybean oil solution, PBS pH 7.4 with 0.25% SDS, 25 °C): more than 72 h

With O=C1CCc2ccc(OCCCCN3CCN(c4cccc(Cl)c4Cl)CC3)cc2N1 [aripiprazole] as the compound, how does the pKa [7] read?
The pKa was 7.46.
